Laboratory results published in PubChem BioAssay AID256 (DTP/NCI, 2004).
Values joined by “and” are separate entries in the source; they are usually repeats but may differ in a detail not shown here. Equal values may be shown once. Inconclusive results and toxic doses are left out.

System: CD2F1 mice, L1210 leukemia ip, survival T/C
Assay: NCI In Vivo Anticancer Drug Screen. Data for tumor model L1210 Leukemia (intraperitoneal) in CD2F1 (CDF1) mice
Settings: endpoint: mean survival time, higher = longer survival
Summary of the method: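 Vehicle-treated tumor-bearing mice served as controls (C) for compound-treated mice (T). Reported figure is T divided by C.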

[1] = dose: 50.0 mg/kg/injection, schedule: Q01DX009 (ip), vehicle: Klucel (hydroxypropylcellulose) (HPC)
[2] = dose: 100.0 mg/kg/injection, schedule: Q01DX009 (ip), vehicle: Klucel (hydroxypropylcellulose) (HPC)
[3] = dose: 200.0 mg/kg/injection, schedule: Q01DX009 (ip), vehicle: Klucel (hydroxypropylcellulose) (HPC)
[4] = dose: 100.0 mg/kg/injection, schedule: Q01DX009 (ip), vehicle: saline with Tween-80
[5] = dose: 100.0 mg/kg/injection, schedule: Q04DX003 (ip), vehicle: saline with Tween-80
[6] = dose: 200.0 mg/kg/injection, schedule: Q01DX009 (ip), vehicle: saline with Tween-80
[7] = dose: 200.0 mg/kg/injection, schedule: Q04DX003 (ip), vehicle: saline with Tween-80
[8] = dose: 400.0 mg/kg/injection, schedule: Q04DX003 (ip), vehicle: saline with Tween-80
[9] = dose: 25.0 mg/kg/injection, schedule: Q01DX009 (ip), vehicle: water
[10] = dose: 75.0 mg/kg/injection, schedule: Q01DX001 (ip), vehicle: other
[11] = dose: 150.0 mg/kg/injection, schedule: Q01DX001 (ip), vehicle: other
[12] = dose: 100.0 mg/kg/injection, schedule: Q01DX001 (ip), vehicle: saline with Tween-80
[13] = dose: 50.0 mg/kg/injection, schedule: Q01DX009 (ip), vehicle: saline with Tween-80

Which T/C (dose: 100.0 mg/kg/injection, schedule: Q04DX003 (ip), vehicle: saline) does the source give for CN(C)CCOS(C)(=O)=O here?
Its T/C is 100 % of control.

And the T/C (dose: 200.0 mg/kg/injection, schedule: Q04DX003 (ip), vehicle: saline)?
The T/C was 98 % of control.

And the T/C (dose: 400.0 mg/kg/injection, schedule: Q04DX003 (ip), vehicle: saline)?
The T/C was 100 % of control.

Which results are given for COc1ccc(Cl)cc1C/C=N/N(C)C?
T/C (dose: 75.0 mg/kg/injection, schedule: Q01DX001 (ip), vehicle: saline): 103 % of control; T/C (dose: 150.0 mg/kg/injection, schedule: Q01DX001 (ip), vehicle: saline): 105 % of control

For COc1cc2cc(c1Cl)N(C)C(=O)CC(OC(=O)C(C)N(C)C(=O)C(C)C)C1(C)OC1C(C)C1CC(O)(NC(=O)O1)C(OC)/C=C/C=C(C)C2 (configuration not stated), which T/C (dose: 1.2 micrograms/kg/injection, schedule: Q01DX009 (ip), vehicle: saline + alcohol) is on record?
The T/C was 109 % of control.

What about the T/C (dose: 2.5 micrograms/kg/injection, schedule: Q01DX009 (ip), vehicle: saline + alcohol) of the same compound?
Its T/C is 113 % of control.

What about the T/C (dose: 5.0 micrograms/kg/injection, schedule: Q01DX009 (ip), vehicle: saline + alcohol) of the same compound?
The T/C was 116 % of control.

And the T/C (dose: 10.0 micrograms/kg/injection, schedule: Q01DX009 (ip), vehicle: saline + alcohol)?
Its T/C is 119 % of control.

With O=C(OCC(OC(=O)c1ccccc1)C(OC(=O)c1ccccc1)C(COC(=O)c1ccccc1)OC(=O)c1ccccc1)c1ccccc1 (configuration not stated) as the compound, how does the T/C [1] read?
Its T/C is 97 % of control.

And the T/C [2]?
Its T/C is 97 % of control.

What about the T/C [3] of the same compound?
Its T/C is 86 % of control.

CN(C)CC(C)(C)C(=O)c1ccccc1 was tested. Which T/C (dose: 100.0 mg/kg/injection, schedule: Q04DX002 (ip), vehicle: saline) did it give?
Its T/C is 93 % of control.

Which results are given for COC(=O)CCC(=O)N(C)CCc1c[nH]c2ccccc12?
T/C [4]: 100 % of control; T/C [5]: 93 % of control; T/C [6]: 94 % of control; T/C [7]: 93 % of control; T/C (dose: 400.0 mg/kg/injection, schedule: Q01DX009 (ip), vehicle: saline with Tween-80): 100 % of control; T/C [8]: 98 % of control

O=C(O)C1CCC[N-]C1.O=C(O)C1CCC[N-]C1.[Cl][Pt+2][Cl] (configuration not stated) was tested. Which T/C (dose: 5.0 mg/kg/injection, schedule: Q04DX003 (ip), vehicle: saline with Tween-80) did it give?
Its T/C is 95 % of control.

And the T/C (dose: 10.0 mg/kg/injection, schedule: Q04DX003 (ip), vehicle: saline with Tween-80)?
The T/C was 112 % of control.

And the T/C (dose: 20.0 mg/kg/injection, schedule: Q04DX003 (ip), vehicle: saline with Tween-80)?
The T/C was 107 % of control.

Nc1ncc(C2OC(CO)C(O)C2O)c(N)n1 (configuration not stated) was tested. Which T/C [9] did it give?
Its T/C is 91 % of control.

And the T/C (dose: 50.0 mg/kg/injection, schedule: Q01DX009 (ip), vehicle: water)?
Its T/C is 100 % of control.

And the T/C (dose: 100.0 mg/kg/injection, schedule: Q01DX009 (ip), vehicle: water)?
Its T/C is 95 % of control.

What about the T/C (dose: 200.0 mg/kg/injection, schedule: Q01DX009 (ip), vehicle: water) of the same compound?
Its T/C is 88 % of control.

And the T/C (dose: 400.0 mg/kg/injection, schedule: Q01DX009 (ip), vehicle: water)?
Its T/C is 91 % of control.

How did the T/C (dose: 0.39 mg/kg/injection, schedule: Q01DX009 (ip), vehicle: water) turn out when COc1cccc2c1C(=O)c1c(O)c3c(c(O)c1C2=O)CC(O)(/C(C)=N/NC(=O)CCC(=O)N/N=C(\C)C1(O)Cc2c(O)c4c(c(O)c2C(OC2CC(N)C(O)C(C)O2)C1)C(=O)c1c(OC)cccc1C4=O)CC3OC1CC(N)C(O)C(C)O1 (configuration not stated) was run?
Its T/C is 102 % of control.

And the T/C (dose: 0.78 mg/kg/injection, schedule: Q01DX009 (ip), vehicle: water)?
The T/C was 106 % of control.

And the T/C (dose: 1.56 mg/kg/injection, schedule: Q01DX009 (ip), vehicle: water)?
Its T/C is 113 % of control and 101 % of control.

And the T/C (dose: 3.13 mg/kg/injection, schedule: Q01DX009 (ip), vehicle: water)?
Its T/C is 106 % of control and 111 % of control.

What about the T/C (dose: 6.25 mg/kg/injection, schedule: Q01DX009 (ip), vehicle: water) of the same compound?
The T/C was 118 % of control.

What about the T/C (dose: 12.5 mg/kg/injection, schedule: Q01DX009 (ip), vehicle: water) of the same compound?
The T/C was 150 % of control.

What about the T/C [9] of the same compound?
Its T/C is 111 % of control.

How did the T/C (dose: 100.0 mg/kg/injection, schedule: Q01DX001 (ip), vehicle: other) turn out when Nc1cc(NC(c2ccccc2)c2ccccc2)c2[nH]cnc2n1 was run?
The T/C was 91 % of control.

And the T/C (dose: 200.0 mg/kg/injection, schedule: Q01DX001 (ip), vehicle: other)?
The T/C was 95 % of control.

CCCCOC(=O)c1n[nH]c(C)c1N=NN1CCOCC1 was tested. Which T/C [10] did it give?
The T/C was 105 % of control.

What about the T/C [11] of the same compound?
The T/C was 97 % of control.

What about the T/C (dose: 300.0 mg/kg/injection, schedule: Q01DX001 (ip), vehicle: other) of the same compound?
Its T/C is 103 % of control.

How did the T/C (dose: 100.0 mg/kg/injection, schedule: Q01DX001 (ip), vehicle: saline sonified) turn out when CCCCCCCCCCCCCC(CCCCCCCC)CCCCCCCC was run?
Its T/C is 111 % of control.

What about the T/C (dose: 200.0 mg/kg/injection, schedule: Q01DX001 (ip), vehicle: saline sonified) of the same compound?
Its T/C is 104 % of control.

And the T/C (dose: 400.0 mg/kg/injection, schedule: Q01DX001 (ip), vehicle: saline sonified)?
The T/C was 101 % of control.

Which results are given for N#CCCN1c2ccccc2Sc2ccccc21?
T/C (dose: 75.0 mg/kg/injection, schedule: Q04DX003 (ip), vehicle: saline): 102 % of control; T/C (dose: 150.0 mg/kg/injection, schedule: Q04DX003 (ip), vehicle: saline): 112 % of control

Which results are given for CC1(C)N=C(N)N=C(N)N1c1ccc(OCCCCNC(=O)Nc2ccc(S(=O)(=O)F)cc2)c(Cl)c1?
T/C (dose: 25.0 mg/kg/injection, schedule: Q01DX001 (ip), vehicle: saline with Tween-80): 101 % of control; T/C (dose: 50.0 mg/kg/injection, schedule: Q01DX001 (ip), vehicle: saline with Tween-80): 95 % of control; T/C [12]: 94 % of control and 95 % of control

For Cc1cc(C)[nH]n1, which T/C [5] is on record?
The T/C was 95 % of control.

What about the T/C [7] of the same compound?
Its T/C is 93 % of control.

What about the T/C [8] of the same compound?
Its T/C is 97 % of control.

Which T/C (dose: 25.0 mg/kg/injection, schedule: Q01DX009 (ip), vehicle: saline with Tween-80) does the source give for O=S(=O)(Oc1ccccc1)c1c(F)c(F)c(F)c(F)c1F here?
The T/C was 94 % of control.

What about the T/C [13] of the same compound?
The T/C was 94 % of control.

What about the T/C [4] of the same compound?
The T/C was 90 % of control.

What about the T/C [5] of the same compound?
Its T/C is 95 % of control.

What does the source list for Nc1ncnc2c1c(-c1nnc3c(n1)-c1ccccc1C3=O)cn2C1OC(CO)C(O)C1O (configuration not stated)?
T/C (dose: 100.0 mg/kg/injection, schedule: Q01DX005 (ip), vehicle: saline): 100 % of control; T/C (dose: 200.0 mg/kg/injection, schedule: Q01DX005 (ip), vehicle: saline): 100 % of control

How did the T/C [10] turn out when O=[N+]([O-])c1cc(CCl)ccc1CCl was run?
The T/C was 96 % of control.

What about the T/C [11] of the same compound?
Its T/C is 96 % of control.

What does the source list for CCCCOC(=O)c1ccc(NC(=O)Nc2ccccc2Cl)cc1?
T/C [13]: 89 % of control; T/C [4]: 86 % of control; T/C [5]: 91 % of control; T/C [6]: 96 % of control; T/C [7]: 100 % of control

With CN(C)P(=O)(OP(=O)(N(C)C)N(C)C)N(C)C as the compound, how does the T/C (dose: 2.0 mg/kg/injection, schedule: Q04DX003 (ip), vehicle: saline) read?
Its T/C is 102 % of control.

And the T/C (dose: 4.0 mg/kg/injection, schedule: Q04DX003 (ip), vehicle: saline)?
The T/C was 98 % of control.

What about the T/C (dose: 8.0 mg/kg/injection, schedule: Q04DX003 (ip), vehicle: saline) of the same compound?
The T/C was 100 % of control.

What does the source list for Nc1ncc(N)c(N)n1?
T/C (dose: 250.0 mg/kg/injection, schedule: Q04DX003 (ip), vehicle: saline sonified): 102 % of control; T/C (dose: 500.0 mg/kg/injection, schedule: Q04DX003 (ip), vehicle: saline sonified): 98 % of control; T/C (dose: 1000.0 mg/kg/injection, schedule: Q04DX003 (ip), vehicle: saline sonified): 103 % of control

O=[N+]([O-])O.[Ho] was tested. Which T/C (dose: 100.0 mg/kg/injection, schedule: Q01DX009 (ip), vehicle: saline) did it give?
Its T/C is 94 % of control.

With O=C(O)C(=O)O.[La] as the compound, how does the T/C (dose: 200.0 mg/kg/injection, schedule: Q01DX009 (ip), vehicle: other) read?
The T/C was 98 % of control.

And the T/C (dose: 400.0 mg/kg/injection, schedule: Q01DX009 (ip), vehicle: other)?
The T/C was 96 % of control.

How did the T/C (dose: 25.0 mg/kg/injection, schedule: Q01DX009 (ip), vehicle: Klucel (hydroxypropylcellulose) (HPC)) turn out when O=c1ccc2nc3ccccc3sc-2c1 was run?
Its T/C is 106 % of control.

What about the T/C [1] of the same compound?
Its T/C is 103 % of control.

And the T/C [13]?
The T/C was 97 % of control.

And the T/C [2]?
The T/C was 108 % of control.

What about the T/C [3] of the same compound?
Its T/C is 98 % of control.

Which T/C (dose: 25.0 mg/kg/injection, schedule: Q04DX003 (ip), vehicle: saline with Tween-80) does the source give for CCCCCCCCCCCCCCCCN(C)C here?
Its T/C is 94 % of control.

What about the T/C (dose: 50.0 mg/kg/injection, schedule: Q04DX003 (ip), vehicle: saline with Tween-80) of the same compound?
The T/C was 95 % of control.

NC1=CC(=O)C(c2ccccc2)C1=O (configuration not stated) was tested. Which T/C [12] did it give?
Its T/C is 100 % of control.

And the T/C (dose: 200.0 mg/kg/injection, schedule: Q01DX001 (ip), vehicle: saline with Tween-80)?
Its T/C is 92 % of control.

What about the T/C (dose: 400.0 mg/kg/injection, schedule: Q01DX001 (ip), vehicle: saline with Tween-80) of the same compound?
Its T/C is 92 % of control.
